For 33 molecules, IC50 results are on record in patent publication US7741354B2, “Inhibitors of glutaminyl cyclase” (Probiodrug AG, priority 2006, dated 2010).

The target of one experiment is hQC (Homo sapiens, UniProt Q16769). Put plainly: Fluorometric (fluorescent) assay of hQC inhibition, IC50. The experiment is classed as biochemical. The following applies: hQC inhibition; read-out: IC50. On the procedure: All compounds were immediately tested regarding their activity as hQC inhibitors.
Sequence of hQC (Q16769 29-361): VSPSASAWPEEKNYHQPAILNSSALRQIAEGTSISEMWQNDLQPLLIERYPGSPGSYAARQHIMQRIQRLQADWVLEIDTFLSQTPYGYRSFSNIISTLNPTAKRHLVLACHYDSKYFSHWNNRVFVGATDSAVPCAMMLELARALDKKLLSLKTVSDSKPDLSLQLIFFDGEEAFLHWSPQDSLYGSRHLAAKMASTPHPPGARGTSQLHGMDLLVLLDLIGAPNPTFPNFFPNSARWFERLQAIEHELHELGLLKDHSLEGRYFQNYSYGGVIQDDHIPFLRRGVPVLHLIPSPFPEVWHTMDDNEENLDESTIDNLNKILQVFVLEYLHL
The purity of the compounds was determined by HPLC-MS. The IC50 value against hQC was measured using the fluorescent assay.
All measurements were performed with a BioAssay Reader HTS-7000Plus for microplates (Perkin Elmer) at 30° C. QC activity was evaluated fluorometrically using H-Gln-βNA. The samples consisted of 0.2 mM fluorogenic substrate, 0.25 U pyroglutamyl aminopeptidase (Unizyme, Horsholm, Denmark) in 0.2 M Tris/HCl, pH 8.0 containing 20 mM EDTA and an appropriately diluted aliquot of QC in a final volume of 250 μl. Excitation/emission wavelengths were 320/410 nm. The assay reactions were initiated by addition of glutaminyl cyclase. QC activity was determined from a standard curve of β-naphthylamine under assay conditions. One unit is defined as the amount of QC catalyzing the formation of 1 μmol pGlu-βNA from H-Gln-βNA per minute under the described conditions.
In a second fluorometric assay, QC was activity determined using H-Gln-AMC as substrate. Reactions were carried out at 30° C. utilizing the NOVOStar reader for microplates (BMG labtechnologies). The samples consisted of varying concentrations of the fluorogenic substrate, 0.1 U pyroglutamyl aminopeptidase (Qiagen) in 0.05 M Tris/HCl, pH 8.0 containing 5 mM EDTA and an appropriately diluted aliquot of QC in a final volume of 250 μl. Excitation/emission wavelengths were 380/460 nm. The assay reactions were initiated by addition of glutaminyl cyclase. QC activity was determined from a standard curve of 7-amino-4-methylcoumarin under assay conditions. The kinetic data were evaluated using GraFit sofware.
For inhibitor testing, the sample composition was the same as described above, except of the putative inhibitory compound added. For a rapid test of QC-inhibition, samples contained 4 mM of the respective inhibitor and a substrate concentration at 1 KM. For detailed investigations of the inhibition and determination of Ki-values, influence of the inhibitor on the auxiliary enzymes was investigated first. […] The inhibitory constant was evaluated by fitting the set of progress curves to the general equation for competitive inhibition using GraFit software.
What is called IC50 is the midpoint of a concentration-inhibition curve. Consider `c1csc(CCn2nnnc2C(Nc2ccc3[nH]cnc3c2)c2ccc3nsnc3c2)c1` (stereo not shown) [compound 181], for which the IC50 was 0.4 µM.
Same read-out and setting: next, `CCOC(=O)C1CCCCC1n1nnnc1C(Nc1ccc2[nH]cnc2c1)c1cc(C)cc(C)c1` (stereo not shown) [compound 157]: 5.8 µM; `Brc1cc(Br)cc(C(Nc2ccc3[nH]cnc3c2)c2nnnn2-c2ccc(Oc3ccccc3)cc2)c1` (stereo not shown) [compound 178, (1H-Benzoimidazol-5-yl)-{(3,5-dibromo-phenyl)-[1-(4-phenoxy-phenyl)-1H-tetrazol-5-yl]-methyl}-amine]: 5.8 µM; `Brc1ccc(C(Nc2ccc3[nH]cnc3c2)c2nnnn2-c2ccccc2OCc2ccccc2)cc1` (stereo not shown) [compound 203, (1H-Benzoimidazol-5-yl)-[[1-(2-benzyloxy-phenyl)-1H-tetrazol-5-yl]-(4-bromo-phenyl)-methyl]-amine]: 2.2 µM.
In the case of `CSc1ccc(C(Nc2ccc3[nH]cnc3c2)c2nnnn2CC2COC(C)(C)O2)cc1` (stereo not shown) [compound 130, (1H-Benzoimidazol-5-yl)-[[1-(2,2-dimethyl-[1,3]dioxolan-4-ylmethyl)-1H-tetrazol-5-yl]-(4-methylsulfanyl-phenyl)-methyl]-amine], the half-maximal inhibitory concentration (IC50) worked out at 7.6 µM.
For the molecule `COc1ccccc1C(Nc1ccc2[nH]cnc2c1)c1nnnn1Cc1ccccc1Cl` (stereo not shown) [compound 153], the IC50 worked out at 3.1 µM.
As for `C/C=C/C=C/C(Nc1ccc2[nH]cnc2c1)c1nnnn1CC1CCCO1` (stereo not shown) [compound 174, (1H-Benzoimidazol-5-yl)-{(2E,4E)-1-[1-(tetrahydro-furan-2-ylmethyl)-1H-tetrazol-5-yl]-hexa-2,4-dienyl}-amine], the IC50 turned out to be 8.5 µM.
`Cc1cc(C(Nc2ccc3[nH]cnc3c2)c2nnnn2CC2COC(C)(C)O2)cc(C)c1O` (stereo not shown) [compound 165, 4-{(1H-Benzoimidazol-5-ylamino)-[1-(2,2-dimethyl-[1,3]dioxolan-4-ylmethyl)-1H-tetrazol-5-yl]-methyl}-2,6-dimethyl-phenol]: the IC50 was determined as 5.8 µM.
With `O=c1c(C(Nc2ccc3[nH]cnc3c2)c2nnnn2CCc2cccs2)coc2ccccc12` (stereo not shown) [compound 122, 3-{(1H-Benzoimidazol-5-ylamino)-[1-(2-thiophen-2-yl-ethyl)-1H-tetrazol-5-yl]-methyl}-chromen-4-one], the IC50 stood at 4.9 µM.
Same read-out and setting: next, `CCOC(=O)C1CCCCC1n1nnnc1C(Nc1ccc2[nH]cnc2c1)c1ccc(CC)cc1` (stereo not shown) [compound 168]: 5.8 µM.
Consider `Clc1ccc(C(Nc2ccc3[nH]cnc3c2)c2nnnn2Cc2ccccc2Cl)cc1` (stereo not shown) [compound 127, (1H-Benzoimidazol-5-yl)-[[1-(2-chloro-benzyl)-1H-tetrazol-5-yl]-(4-chloro-phenyl)-methyl]-amine], for which the IC50 worked out at 3.1 µM.

Staying with this experiment, now noted: purified compound from preparative synthesis; fluorescent assay; read-out: IC50 hQC.
`Clc1ccc(Cn2nnnc2C(NCCCn2ccnc2)c2ccc3[nH]ccc3c2)cc1` (stereo not shown) [Compound 6, [[1-(4-Chloro-benzyl)-1H-tetrazol-5-yl]-(1H-indol-5-yl)-methyl]-(3-imidazol-1-yl-propyl)-amine]: the IC50 is 0.45 µM.

The same experiment, now with this note: read-out: IC50.
In the case of `CCCC(Nc1ccc2[nH]cnc2c1)c1nnnn1Cc1ccccc1` (stereo not shown) [compound 110, (1H-Benzoimidazol-5-yl)-[1-(1-benzyl-1H-tetrazol-5-yl)-butyl]-amine], the IC50 worked out at 5.8 µM.
In the case of `CSCCC(Nc1ccc2[nH]cnc2c1)c1nnnn1C(c1ccccc1)c1ccccc1` (stereo not shown) [compound 95, [1-(1-Benzhydryl-1H-tetrazol-5-yl)-3-methylsulfanyl-propyl]-(1H-benzoimidazol-5-yl)-amine], the IC50 was 4.9 µM.
Regarding `C=CCn1nnnc1C(NCCCn1ccnc1)c1cc(C)ccc1O` (stereo not shown) [compound 44, 2-[(1-Allyl-1H-tetrazol-5-yl)-(3-imidazol-1-yl-propylamino)-methyl]-4-methyl-phenol], the IC50 was 4.9 µM.
For `COc1ccc(C(Nc2ccc3[nH]cnc3c2)c2nnnn2Cc2ccc(Cl)cc2)c(C)c1` (stereo not shown) [compound 75, (1H-Benzoimidazol-5-yl)-[[1-(4-chloro-benzyl)-1H-tetrazol-5-yl]-(4-methoxy-2-methyl-phenyl)-methyl]-amine], the IC50 came to 2.2 µM.
Turning to `Fc1cc(C(Nc2ccc3[nH]cnc3c2)c2nnnn2C2CCCCC2)ccc1Cl` (stereo not shown) [compound 107, (1H-Benzoimidazol-5-yl)-[(4-chloro-3-fluoro-phenyl)-(1-cyclohexyl-1H-tetrazol-5-yl)-methyl]-amine], the IC50 was 4.9 µM.
Consider `CC(C)(C)OC(=O)Cn1nnnc1C(Nc1ccc2[nH]cnc2c1)c1ccc(Br)cc1` (stereo not shown) [compound 87, {5-[(1H-Benzoimidazol-5-ylamino)-(4-bromo-phenyl)-methyl]-tetrazol-1-yl}-acetic acid tert-butyl ester], for which the IC50 worked out at 1.3 µM.
As to `CC(C)(C)Cn1nnnc1C(NCCCn1ccnc1)c1ccc2ccccc2n1` (stereo not shown) [compound 66, {[1-(2,2-Dimethyl-propyl)-1H-tetrazol-5-yl]-quinolin-2-yl-methyl}-(3-imidazol-1-yl-propyl)-amine], the IC50 worked out at 3.1 µM.
For the molecule `Oc1cccc2ccc(C(NCCCn3ccnc3)c3nnnn3C[C@@H]3CCCO3)nc12` (stereo partly drawn) [compound 12, 2-((3-Imidazol-1-yl-propylamino)-{1-[(S)-1-(tetrahydro-furan-2-yl)methyl]-1H-tetrazol-5-yl}-methyl)-quinolin-8-ol], the IC50 was determined as 2.2 µM.
With `COCCCn1nnnc1C(NCCCn1ccnc1)c1ccc(Cl)c(Cl)c1` (stereo not shown) [compound 32, {(3,4-Dichloro-phenyl)-[1-(3-methoxy-propyl)-1H-tetrazol-5-yl]-methyl}-(3-imidazol-1-yl-propyl)-amine], the IC50 amounted to 7.6 µM.
For the molecule `CC(Cc1ccc2c(c1)OCO2)C(Nc1ccc2[nH]cnc2c1)c1nnnn1CC1CCCO1` (stereo not shown) [compound 93, {3-Benzo[1,3]dioxol-5-yl-2-methyl-1-[1-(tetrahydro-furan-2-ylmethyl)-1H-tetrazol-5-yl]-propyl}-(1H-benzoimidazol-5-yl)-amine], the IC50 turned out to be 7.6 µM.
In the case of `CCOC(=O)C1CCCCC1n1nnnc1C(Nc1ccc2[nH]cnc2c1)c1ccc(Br)cc1` (stereo not shown) [compound 103], the IC50 worked out at 4.9 µM.
On to `Cc1ccc2c(C(Nc3ccc4[nH]cnc4c3)c3nnnn3CC3CCCO3)c[nH]c2c1` (stereo not shown) [compound 80, (1H-Benzoimidazol-5-yl)-{(6-methyl-1H-indol-3-yl)-[1-(tetrahydro-furan-2-ylmethyl)-1H-tetrazol-5-yl]-methyl}-amine], for which the IC50 is 6.7 µM.
Consider `COc1ncc(C(NCCCn2ccnc2)c2nnnn2C(C)(C)C)c(OC)n1` (stereo not shown) [compound 62, [(1-tert-Butyl-1H-tetrazol-5-yl)-(2,4-dimethoxy-pyrimidin-5-yl)-methyl]-(3-imidazol-1-yl-propyl)-amine], for which the IC50 worked out at 8.5 µM.
For `CCCOc1cccc(C(Nc2ccc3[nH]cnc3c2)c2nnnn2Cc2cccnc2)c1` (stereo not shown) [compound 74, (1H-Benzoimidazol-5-yl)-[(3-propoxy-phenyl)-(1-pyridin-3-ylmethyl-1H-tetrazol-5-yl)-methyl]-amine], the IC50 amounted to 2.2 µM.
On to `c1ccc2nc(C(NCCCn3ccnc3)c3nnnn3C3CC3)ccc2c1` (stereo not shown) [compound 70, [(1-Cyclopropyl-1H-tetrazol-5-yl)-quinolin-2-yl-methyl]-(3-imidazol-1-yl-propyl)-amine], for which the IC50 amounted to 5.8 µM.
For `c1ccc(C(c2ccccc2)n2nnnc2C(Nc2ccc3[nH]cnc3c2)c2ccc3nsnc3c2)cc1` (stereo not shown) [compound 112, [(1-Benzhydryl-1H-tetrazol-5-yl)-benzo[c][1,2,5]thia-diazol-5-yl-methyl]-(1H-benzoimidazol-5-yl)-amine], the IC50 came to 5.8 µM.
Take `Cn1nnnc1C(NCCCn1ccnc1)c1ccc2cccc(O)c2n1` (stereo not shown) [compound 29, 2-[(3-imidazol-1-yl-propylamino)-(1-methyl-1H-tetrazol-5-yl)-methyl]-quinolin-8-ol]: the concentration for half-maximal inhibition (IC50) was found to be 3.1 µM.
For `CCCCn1nnnc1C(NCCCn1ccnc1)c1ccc2ccccc2n1` (stereo not shown) [compound 22, [(1-Butyl-1H-tetrazol-5-yl)-quinolin-2-yl-methyl]-(3-imidazol-1-yl-propyl)-amine], the IC50 was found to be 3.1 µM.
As to `COc1ccc(C(Nc2ccc3[nH]cnc3c2)c2nnnn2CC2CCCO2)cc1Br` (stereo not shown) [compound 109, (1H-Benzoimidazol-5-yl)-{(3-bromo-4-methoxy-phenyl)-[1-(tetrahydro-furan-2-ylmethyl)-1H-tetrazol-5-yl]-methyl}-amine], the IC50 stood at 1.3 µM.
Consider `c1ccc2nc(C(NCCCn3ccnc3)c3nnnn3C[C@@H]3CCCO3)ccc2c1` (stereo partly drawn) [compound 14, (3-Imidazol-1-yl-propyl)-(quinolin-2-yl-{1-[(S)-1-(tetrahydro-furan-2-yl)methyl]-1H-tetrazol-5-yl}-methyl)-amine], for which the IC50 was 2.2 µM.
Consider `Clc1ccc(Cn2nnnc2C(NCCCn2ccnc2)c2ccc3[nH]ccc3c2)cc1` (stereo not shown) [Compound 6, [[1-(4-Chloro-benzyl)-1H-tetrazol-5-yl]-(1H-indol-5-yl)-methyl]-(3-imidazol-1-yl-propyl)-amine], for which the IC50 stood at 0.4 µM.
For the molecule `CCCCn1nnnc1C(NCCCn1ccnc1)c1cc(C)ccc1O` (stereo not shown) [compound 19, 2[(1-Butyl-1H-tetrazol-5-yl)-(3-imidazol-1-yl-propylamino)-mehtyl]-4-methyl-phenol], the IC50 was 2.2 µM.
